From patent publication US20160137639A1, “TRIAZOLE-ISOXAZOLE COMPOUND AND MEDICAL USE THEREOF” (JAPAN TOBACCO INC., priority 2012, published 2016)
Like-named read-outs stand apart in the source and are kept apart here.

Legend:
mouse RORγ = target: T1, mouse RORγ (Mus musculus, UniProt P51450); experiment: Luciferase reporter gene assay of inhibitory effect against RORγ transcriptional activity (GAL4-mRORγ plasmid in CHO cells); format: cell-based
T1 construct: mouse, NM_011281.2 and from Ile251 to Lys516; expressed in transfected cells; host or cells: CHO cells (transient co-transfection with pG5-Luc reporter)
T1 sequence (P51450 251-516): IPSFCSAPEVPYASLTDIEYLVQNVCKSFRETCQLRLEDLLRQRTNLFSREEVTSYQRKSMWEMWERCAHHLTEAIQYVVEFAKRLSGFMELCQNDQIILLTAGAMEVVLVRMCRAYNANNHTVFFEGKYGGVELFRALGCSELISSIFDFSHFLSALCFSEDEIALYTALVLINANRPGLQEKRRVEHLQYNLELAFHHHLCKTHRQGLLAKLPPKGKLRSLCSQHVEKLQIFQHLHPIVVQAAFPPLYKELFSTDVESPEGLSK
Description: (§1) In vitro assay of inhibitory effect against RORγ transcriptional activity
(§2) Inhibitory effect of test article on transcriptional activity of RORγ was measured by means of the following luciferase reporter gene assay.
(§3) A cDNA encoding human and mouse RORγ ligand binding domain (LBD) were obtained based on the reported sequences (Genebank accession number and sequence: human, NM_005060.3 and from Ser253 to Lys518; mouse, NM_011281.2 and from Ile251 to Lys516).
(§4) The cDNA of human RORγ or mouse RORγ was inserted into pFA-CMV vector (Strategene), which expresses GAL4-DNA binding domain fusion protein.
(§5) The resulting plasmids are hereinafter referred to as GAL4-hRORγ plasmid and GAL4-mRORγ plasmid, respectively.
(§6) Human or mouse GAL4-RORγ plasmid was transiently co-transfected into Chinese hamster ovary cells (CHO cells) with […] plasmid, a reporter plasmid expressing firefly luciferase depending on GAL4.
(§7) TransIT CHO transfection reagent (Mirus) was used to co-transfect human or mouse GAL4-RORγ plasmid into CHO cells with pG5-Luc plasmid.
(§8) One day before the assay, CHO cells were suspended in HAM F-12 Nutrient medium containing 10 v/v % fetal bovine serum and seeded at 6×10^6 cells per 175 cm^2 cell culture flask.
(§9) Fifty four micro litters of Transit-CHO reagent was added into a 15 ml tube containing 1.16 ml of HAM F-12 Nutrient medium without fetal bovine serum and incubated at room temperature for 10 min.
(§10) The mixture was incubated at room temperature for 10 min.
(§11) Nine micro litters of CHO Mojo Reagent was then added into each tube and mixed gently. The mixture was incubated at room temperature for 10 min.
(§12) The resultant transfection reagent was applied to the cell culture.
(§13) After incubation at 37° C., 5% CO2 for 4 hr, the transfected CHO cells were harvested by a trypsin treatment.
(§14) The collected cells were resuspended in HAM F-12 Nutrient medium supplemented with 10 v/v % fetal bovine serum and plated into a 384-well-white plate at 8,000 cells/50 uL/well.
(§15) The plate was incubated at room temperature for 1 hour and then further incubated at 37° C., 5% CO2 for 3 hours.
(§16) The test articles were dissolved in dimethylsulfoxide (DMSO) to obtain a concentration of 10 mmol/L. The resulting solution was diluted with the medium just before use and added to the cells in the plate to prepare 8 different concentrations of the test article.
(§17) The final concentration of DMSO was 0.1 v/v % After the addition of the test articles, the cells were incubated at 37° C., 5% CO2 for 2 days.
(§18) RORγ transcriptional activity was detected as the intracellular luciferase activity using SteadyLite HTS Reporter Gene Assay System (Perkin Elmer).
(§19) StedyLite Reagent was diluted five-fold into a solution containing 10 mM Tricine, 0.2% w/v BSA, 0.02% v/v Tween-20 to obtain the luciferase substrate solution.
(§20) After the measurement of the cell viability using Resazurin, the culture media in the 384 well-plate were removed. Then the Luc substrate solution was added into each well.
(§21) After the incubation at room temperature for 10 minutes, luminescence of each well was measured by a microplate reader.
(§22) The luciferase activity derived from the luminescence count in the vehicle-control well treated with 0.1% DMSO alone was defined as 100%, and the luciferase activity in the test article was calculated as a percentage (%-of-control) based on the value of the vehicle-control.
(§23) EC50 value of test article was calculated by curve fitting with GraphPad Prism.
(§24) The luminescence counts at the concentration of the test article where the cytotoxicity was observed were excluded from the data analysis.

human RORγ = target: T2, human RORγ (Homo sapiens, UniProt P51449); experiment: Luciferase reporter gene assay of inhibitory effect against RORγ transcriptional activity (GAL4-hRORγ plasmid in CHO cells); format: cell-based
T2 construct: human, NM_005060.3 and from Ser253 to Lys518; expressed in transfected cells; host or cells: CHO cells (transient co-transfection with pG5-Luc reporter)
T2 sequence (P51449 253-518): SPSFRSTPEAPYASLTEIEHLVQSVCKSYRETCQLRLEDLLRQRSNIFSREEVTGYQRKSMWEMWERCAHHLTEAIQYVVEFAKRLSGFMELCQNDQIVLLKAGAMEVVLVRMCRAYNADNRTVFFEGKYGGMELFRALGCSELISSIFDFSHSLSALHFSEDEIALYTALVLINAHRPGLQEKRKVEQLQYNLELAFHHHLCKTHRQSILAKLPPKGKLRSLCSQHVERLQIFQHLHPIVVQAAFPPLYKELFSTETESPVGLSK
Description: as §1, §2, §3, §4, §5, §6, §7, §8, §9
A total 36 uL plasmid solution containing the GAL4-hRORγ plasmid (400 ng), pG5-Luc plasmid (9000 ng) and pcDNA3 plasmid (8600 ng) were added into the tube and mixed gently.
as §10, §11, §12, §13, §14, §15, §16, §17, §18, §19, §20, §21, §22, §23, §24

| SMILES | EC50 (mouse RORγ; read-out: LUC EC50 (μM) mRORg) | EC50 (human RORγ; read-out: LUC EC50 (μM) hRORg) | EC50 (mouse RORγ; read-out: LUC EC50 mRORg) | EC50 (human RORγ; read-out: LUC EC50 hRORg) |
| --- | --- | --- | --- | --- |
| CC(C)CCc1nnc(CCC(=O)NCc2ccc(Cl)cc2)n1C1CC1 [Example F-122] | > 3 µM | > 3 µM |  |  |
| CCCOc1ccc(-c2nnc(CCC(=O)Nc3ccc(C)cc3C)n2C2CC2)cc1 [Example F-463] | < 3 µM | > 3 µM |  |  |
| Cc1ccc(NC(=O)C[C@H](CC#N)c2noc([C@H]3C[C@@H](CC(C)C)C3)c2C2CC2)c(C)c1 [Example F-638] |  |  | < 3 µM | < 3 µM |
| Cc1ccc(NC(=O)CC(c2nnc([C@H]3C[C@@H](CC(C)C)C3)n2C2CC2)C2CNC2)c(C)c1 (mixture of isomers) [Example F-468] | > 3 µM | > 3 µM |  |  |
| Cc1ccc(NC(=O)C[C@H](CC(=O)NC(C)(C)C)c2noc([C@H]3C[C@@H](CC(C)C)C3)c2C2CC2)c(C)c1 [Example F-639] |  |  | < 3 µM | < 3 µM |
| Cc1ccc(NC(=O)CC(CC(=O)N(C)C)c2nnc([C@H]3C[C@@H](CC(C)C)C3)n2C2CC2)c(C)c1 (mixture of isomers) [Example F-500] |  |  | < 3 µM | < 3 µM |
| O=C(O)CC[C@@H](CC(=O)Nc1ccc(Cl)cc1F)c1noc(-c2cc(C3CCCC3)on2)c1C1CC1 [Example E-59] | < 3 µM | < 3 µM |  |  |
| CCOC(=O)CCc1c(CCC(=O)Nc2ccc(C)cc2C)noc1[C@H]1C[C@@H](CC(C)C)C1 [Example F-663] |  |  | > 3 µM | > 3 µM |
| Cc1cccnc1NC(=O)CCc1nnc(CCC(C)C)n1C1CC1 [Example F-80] | > 3 µM | > 3 µM |  |  |
| CC(C)(C)C(F)(F)c1cc(-c2onc([C@@H](CCC(=O)O)CC(=O)Nc3ccc(Cl)cc3F)c2C2CC2)no1 [Example E-49, Sodium (S)-5-(4-chloro-2-fluoro-phenylcarbamoyl)-4-[4′-cyclopropyl-5-(1,1-difluoro-2,2-dimethylpropyl)-[3,5′]biisoxazolyl-3′-yl]-pentanoate] | < 3 µM | < 3 µM |  |  |
| CNC(=O)N1C[C@H](C(=O)Nc2ccc(C)cc2C)[C@@H](c2nnc(CCCC(C)(C)C)n2C2CC2)C1 (racemic) [Example F-446] | < 3 µM | < 3 µM |  |  |
| CC(=O)N1C[C@H](C(=O)Nc2cccc(C)c2C)[C@@H](c2nnc(CCCC(C)(C)C)n2C2CC2)C1 (racemic) [Example F-324] | < 3 µM | < 3 µM |  |  |
| Cc1ccc(NC(=O)C[C@H](C[C@@H](C)O)c2nnc([C@H]3C[C@@H](CC(C)C)C3)n2C2CC2)c(C)c1 [Example F-560] |  |  | < 3 µM | < 3 µM |
| CC(C)C[C@H]1C[C@@H](c2nnc([C@@H](CCO)CC(=O)Nc3cccc4c3CCC4)n2C2CC2)C1 [Example F-543] |  |  | < 3 µM | < 3 µM |
| Cc1noc(NC(=O)CCc2nnc(CCC(C)C)n2C2CC2)c1C [Example F-106] | > 3 µM | > 3 µM |  |  |
| Cc1ccc(NC(=O)C[C@H](CCC(=O)O)c2noc(-c3cc(C(C)(C)C)on3)c2C2CC2)c(Cl)c1 [Example E-43] | < 3 µM | < 3 µM |  |  |
| Cc1ccc(NC(=O)CCc2noc([C@H]3C[C@@H](CC(C)C)C3)c2C2CC2)c(C)c1 [Example F-665] |  |  | < 3 µM | < 3 µM |
| COc1cc(C)c(C)cc1CNC(=O)CCc1nnc(CCC(C)C)n1C1CC1 [Example F-205] | > 3 µM | > 3 µM |  |  |

| SMILES | EC50 (mouse RORγ; read-out: LUC EC50 (μM) mRORg) | EC50 (human RORγ; read-out: LUC EC50 (μM) hRORg) | EC50 (mouse RORγ; read-out: LUC EC50 mRORg) | EC50 (human RORγ; read-out: LUC EC50 hRORg) |
| --- | --- | --- | --- | --- |
| Cc1c(Cl)cccc1NC(=O)CCc1nnc(C#CC(C)C)n1C1CC1 [Example F-158] | < 3 µM | > 3 µM |  |  |
| Cc1ccc(NC(=O)CC(CCCO)c2nnc(CCCC(C)(C)C)n2CC(F)(F)F)c(C)c1 (racemic) [Example F-401] | < 3 µM | < 3 µM |  |  |
| Cc1ccc(NC(=O)CCc2nnc(CCC(C)C)n2C2CC2)c(C)c1 [Example F-79] | > 3 µM | > 3 µM |  |  |
| CC(=O)N1C[C@H](C(=O)Nc2ccc(C)cc2C)[C@@H](c2nnc(C3CC(C(C)C)C3)n2C2CC2)C1 (stereo partly drawn) [Example F-298] | < 3 µM | < 3 µM |  |  |
| CC(C)CCc1nnc(CCC(=O)Nc2nnc3ccccn23)n1C1CC1 [Example F-139] | > 3 µM | > 3 µM |  |  |
| Cc1c(Cl)cccc1NC(=O)[C@H]1CN(C(=O)CO)C[C@@H]1c1nnc(CCC(C)C)n1C1CC1 (racemic) [Example F-146] | < 3 µM | > 3 µM |  |  |
| Cc1ccc(NC(=O)C[C@H](OCCO)c2nnc([C@H]3C[C@@H](CC(C)C)C3)n2C2CC2)c(C)c1 [Example F-434] | < 3 µM | < 3 µM |  |  |
| CNC(=O)CO[C@@H](CC(=O)Nc1ccc(C)cc1C)c1nnc([C@H]2C[C@@H](CC(C)C)C2)n1C1CC1 [Example F-480] | < 3 µM | < 3 µM |  |  |
| Cc1ccc(NC(=O)C[C@H](CCC(=O)O)c2noc(-c3cc(C(F)(F)CC(C)(C)C)on3)c2C2CC2)c(Cl)c1 [Example E-35] | < 3 µM | < 3 µM |  |  |
| CC(C)(CO)C[C@H]1C[C@@H](c2onc([C@@H](CCC(=O)O)CC(=O)Nc3ccc(CO)cc3Cl)c2C2CC2)C1 [Example F-726] |  |  | > 3 µM | > 3 µM |
| Cc1ccc(NC(=O)C[C@H](CCCO)c2nnn([C@H]3C[C@@H](CC(C)(C)C(C)C)C3)c2C(F)(F)F)c(F)c1 [Example F-710] |  |  | < 3 µM | < 3 µM |
| Cc1ccc(Br)cc1NC(=O)CCc1nnc(CCC(C)C)n1C1CC1 [Example F-140] | > 3 µM | > 3 µM |  |  |
| Cc1ccc(NC(=O)C[C@H](CCO)c2nnc(-c3cc(CC(C)C)on3)n2C2CC2)c(C)c1 [Example F-457] | > 3 µM | < 3 µM |  |  |
| Cc1ccc(NC(=O)C[C@H](CCC(=O)O)c2noc(-c3cnc(CC(C)C)s3)c2C2CC2)c(Cl)c1 [Example E-41, Sodium (S)-5-(2-chloro-4-methyl-phenylcarbamoyl)-4-[4-cyclopropyl-5-(2-isobutyl-thiazol-5-yl)-isoxazol-3-yl]-pentanoate] | < 3 µM | < 3 µM |  |  |
| CC(C)CCc1nnc(CCC(=O)NCCc2ccccc2)n1C1CC1 [Example F-58] | > 3 µM | > 3 µM |  |  |
| CC(C)(C)C(F)(F)c1cc(-c2onc([C@@H](CCC(=O)O)CC(=O)Nc3ccc(F)cc3Cl)c2C2CC2)no1 [Example E-48] | < 3 µM | < 3 µM |  |  |
| Cc1ccc(NC(=O)C[C@H](CC(C)C)c2nnc(-c3cc(CC(C)C)on3)n2C2CC2)c(C)c1 [Example F-586] |  |  | < 3 µM | < 3 µM |
| Cc1ccc(NC(=O)CC(CC(=O)N2CC[C@@H](O)C2)c2nnc([C@H]3C[C@@H](CC(C)C)C3)n2C2CC2)c(C)c1 (mixture of isomers) [Example F-502] |  |  | > 3 µM | > 3 µM |
